From ChEMBL document CHEMBL2375223, “Disulfide linked pyrazole derivatives inhibit phagocytosis of opsonized blood cells” (Bioorg Med Chem Lett, 2013)
The source made the active and inactive calls. No cut-off for these calls is given here.

What was measured:
PBMC = assay: Induction of apoptosis in human PBMC at 5 uM assessed as apoptotic index after 1 hr by Annexin V-APC/propidium iodide staining-based FACS analysis relative to IVIG; assay type: functional
[1] = molecular target: High affinity immunoglobulin gamma Fc receptor I (Homo sapiens) (UniProt P12314); assay: Inhibition of FCgamma receptor in human PBMC assessed as inhibition of opsonized RBC phagocytosis at 5 uM incubated for 1 hr prior to RBC addition measured after 2 hrs by monocyte monolayer assay relative to control
[2] = molecular target: High affinity immunoglobulin gamma Fc receptor I (Homo sapiens) (UniProt P12314); assay: Inhibition of FCgamma receptor in human PBMC assessed as inhibition of opsonized RBC phagocytosis at 1 mM incubated for 1 hr prior to RBC addition measured after 2 hrs by monocyte monolayer assay relative to control

High affinity immunoglobulin gamma Fc receptor I (Homo sapiens), sequence (P12314 whole entry): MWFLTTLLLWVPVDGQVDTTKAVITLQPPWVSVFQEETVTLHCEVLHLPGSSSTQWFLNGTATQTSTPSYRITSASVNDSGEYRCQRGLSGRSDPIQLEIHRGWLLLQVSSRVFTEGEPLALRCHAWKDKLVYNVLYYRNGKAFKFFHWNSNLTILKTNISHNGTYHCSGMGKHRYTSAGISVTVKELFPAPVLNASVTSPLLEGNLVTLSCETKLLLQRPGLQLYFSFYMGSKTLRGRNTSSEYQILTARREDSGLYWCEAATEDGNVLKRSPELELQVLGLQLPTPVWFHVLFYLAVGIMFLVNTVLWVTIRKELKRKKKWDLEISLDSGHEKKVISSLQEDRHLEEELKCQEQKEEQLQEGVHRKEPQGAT

Row | inhibition [1] | inhibition [2] | SMILES | fold change (FC) (PBMC)
1 | 43% | – | Cc1cc(SSc2cc(C)nn2-c2ccccc2)n(-c2ccccc2)n1 | 2.78
2 | 22% | – | Cc1nn(-c2ccccc2)c(SSc2c(C(=O)c3ccccc3)c(C)nn2-c2ccccc2)c1C(=O)c1ccccc1 | 1.04
3 | 0% | inactive | Cc1nn(-c2ccccc2)c(S)c1C(=O)c1ccccc1 | 1.29
4 | 19% | – | Cc1nn(-c2ccccc2)c(SSc2c(C(=O)c3cccs3)c(C)nn2-c2ccccc2)c1C(=O)c1cccs1 | 0.69
5 | 20% | – | Cc1nn(-c2ccccc2)c(SSc2c(C(=O)N3CCOCC3)c(C)nn2-c2ccccc2)c1C(=O)N1CCOCC1 | 1.88
6 | inactive | – | Cc1nn(-c2ccccc2)c(S)c1C(=O)c1ccno1 | –
7 | 34% | – | Cc1nn(-c2ccccc2)c(SSc2c(C(=O)N3CCCCC3)c(C)nn2-c2ccccc2)c1C(=O)N1CCCCC1 | 1.87
